Measured values: patent EP4692061A1, “LOW-MOLECULAR-WEIGHT COMPOUND HAVING CEREBLON-BINDING ACTIVITY, AND USE THEREOF” (Aevis Bio, Inc., priority 2023, dated 2024)
pIC50: −log10 of the molar value.

Molecular target: cereblon (CRBN) (Homo sapiens, UniProt Q96SW2)
Experiment: In vitro CRBN binding assay (AlphaScreen, competitive inhibition of the PROTAC assay)
Details: not given

SMILES | pIC50
Cc1ccc(NC(=O)Nc2cccc(S(=O)(=O)Nc3cccc(C4CCC(=O)NC4=O)c3)c2)cc1Cl (centres unmarked) [AEV40181] | 6.49

Same assay, conditions: Table 1; AlphaScreen, PROTAC Optimization Kit for BET Bromodomain-Cereblon Binding; read-out: Alpha IC50

SMILES | pIC50
O=C1CCC(c2cccc(NCc3ccc(Br)cc3Cl)c2)C(=O)N1 (centres unmarked) [AEV40109] | 5.60
CCCc1ccc(S(=O)(=O)Nc2cccc(C3CCC(=O)NC3=O)c2)cc1 (centres unmarked) [AEV40047] | 5.82
O=C1CCC(c2cccc(NCc3ccccc3)c2)C(=O)N1 (centres unmarked) [AEV40087] | 5.94
O=C1CCC(c2cccc(NCc3ccc(Oc4ccccc4)cc3)c2)C(=O)N1 (centres unmarked) [AEV40103] | 5.50
O=C1CCC(c2cccc(NC(=O)c3ccc(F)c(F)c3)c2)C(=O)N1 (centres unmarked) [AEV40166] | 5.60
Nc1cc(-c2ccccc2)n(C(=O)CCc2cccc(Nc3cccc(C4CCC(=O)NC4=O)c3)c2)n1 (centres unmarked) [AEV40201] | 5.91
O=C1CCC(c2ccc3c(c2)CN(CCc2ccccc2)C3=O)C(=O)N1 (centres unmarked) [AEV40049] | 5.69
O=C1CCC(c2ccc3c(c2)OCCN(c2cccc(NC(=O)c4ccc(Cl)cc4Cl)c2)C3=O)C(=O)N1 (centres unmarked) [AEV40217] | 5.93
CN1Cc2cc(C3CCC(=O)NC3=O)ccc2C1=O (centres unmarked) [AEV40050] | 5.57
O=C1CCC(c2ccc(NS(=O)(=O)c3ccc(Cl)cc3)cc2)C(=O)N1 (centres unmarked) [AEV40063] | 5.84
O=C1CCC(c2cccc(NC(=O)c3ccc(F)cc3F)c2)C(=O)N1 (centres unmarked) [AEV40164] | 5.78
O=C1CCC(c2cccc(NC(=O)c3cc(-c4ccccc4)ccc3Cl)c2)C(=O)N1 (centres unmarked) [AEV40222] | 5.76
Nc1ccc(S(=O)(=O)Nc2cccc(C3CCC(=O)NC3=O)c2)cc1C(F)(F)F (centres unmarked) [AEV40075] | 5.95
O=C1CCC(c2cccc(NS(=O)(=O)c3ccccc3)c2)C(=O)N1 (centres unmarked) [AEV40025] | 5.73
Cc1ccc(CNc2cccc(C3CCC(=O)NC3=O)c2)cc1 (centres unmarked) [AEV40102] | 5.91
O=C1CCC(c2ccc3c(c2)NC(=O)C3)C(=O)N1 (centres unmarked) [AEV40062] | 5.62
Cc1cc(Cl)ccc1C(=O)Nc1cccc(C2CCC(=O)NC2=O)c1 (centres unmarked) [AEV40147] | 5.86
COC(=O)C1CC2(CC(NC(=O)CCc3cccc(Nc4cccc(C5CCC(=O)NC5=O)c4)c3)C2)C1 (centres unmarked) [AEV40210] | 5.91
COc1ccc(C(=O)Nc2cccc(C3CCC(=O)NC3=O)c2)c(Cl)c1 (centres unmarked) [AEV40176] | 5.91
O=C1CCC(c2cccc(NC(=O)c3ccccc3C(F)(F)F)c2)C(=O)N1 (centres unmarked) [AEV40180] | 5.95
NCc1cccc(C2CCC(=O)NC2=O)c1 (centres unmarked) [AEV40132] | < 5.00

SMILES | pIC50
CS(=O)(=O)Nc1cccc(C2CCC(=O)NC2=O)c1 (centres unmarked) [AEV40030] | 5.15
CC(=O)Nc1ccc(F)c(C2CCC(=O)NC2=O)c1 (centres unmarked) [AEV40034] | 5.20
O=C1CCC(c2cccc(NC(=O)c3ccc(Cl)cc3Cl)c2)C(=O)N1 (centres unmarked) [AEV40076] | 5.87
O=C1CCC(c2cccc(NC(=O)c3ccc(Cl)c(Cl)c3)c2)C(=O)N1 (centres unmarked) [AEV40137] | 5.65
CC1CCC(C(=O)Nc2cccc(N3CCOc4cc(C5CCC(=O)NC5=O)ccc4C3=O)c2)CC1 (centres unmarked) [AEV40213] | 5.68
CC(C)C(=O)Nc1ccc(F)c(C2CCC(=O)NC2=O)c1 (centres unmarked) [AEV40035] | 5.51
Cc1ccc(NC(=O)NCc2cccc(Nc3cccc(C4CCC(=O)NC4=O)c3)c2)cc1Cl (centres unmarked) [AEV40192] | 5.49
CC(C)(C)c1ccc(CNc2cccc(C3CCC(=O)NC3=O)c2)cc1 (centres unmarked) [AEV40098] | 5.55
O=C1CCC(c2cccc(NCc3ccc(-c4ccccc4)cc3)c2)C(=O)N1 (centres unmarked) [AEV40122] | 5.61
O=C1CCC(c2cccc(NC(=O)c3ccc(Cl)cc3)c2)C(=O)N1 (centres unmarked) [AEV40139] | 5.67
Nc1cccc(C2CCC(=O)NC2=O)c1 (centres unmarked) [AEV40029] | 5.53
O=C1CCC(c2cccc(NS(=O)(=O)c3cccc(NCc4cc5ccccc5[nH]4)c3)c2)C(=O)N1 (centres unmarked) [AEV40163] | 5.84
O=C1CCC(c2cccc(NS(=O)(=O)c3ccc(C(F)(F)F)cc3)c2)C(=O)N1 (centres unmarked) [AEV40100] | 5.86
CN1CCN(c2ccc(NC(=O)CCc3cccc(Nc4cccc(C5CCC(=O)NC5=O)c4)c3)cc2)CC1 (centres unmarked) [AEV40196] | 5.91
O=C1CCC(c2cccc(NS(=O)(=O)c3cccc(NC(=O)c4c(F)cccc4C(F)(F)F)c3)c2)C(=O)N1 (centres unmarked) [AEV40149] | 5.82
O=C1CCC(c2cccc(NC(=O)c3cccc(-c4ccccc4)c3)c2)C(=O)N1 (centres unmarked) [AEV40162] | 5.67
Cc1ccccc1C(=O)Nc1cccc(C2CCC(=O)NC2=O)c1 (centres unmarked) [AEV40146] | 5.96
O=C1CCC(c2cccc(NS(=O)(=O)c3cccc(NC(=O)C4CCOCC4)c3)c2)C(=O)N1 (centres unmarked) [AEV40225] | 4.92
CC(=O)Nc1cccc(C2CCC(=O)NC2=O)c1 (centres unmarked) [AEV40016] | 5.28
O=C1CCC(c2cccc(NC(=O)c3ccsc3Cl)c2)C(=O)N1 (centres unmarked) [AEV40189] | 5.79
O=C1CCC(c2cccc(NC(=O)Nc3ccc(C(F)(F)F)cc3)c2)C(=O)N1 (centres unmarked) [AEV40133] | 5.90

Next, values leading:

pIC50 | SMILES
6.23 | O=C1CCC(c2cccc(NS(=O)(=O)c3ccccc3Cl)c2)C(=O)N1 (centres unmarked) [AEV40057]
6.16 | O=C1CCC(c2cc(NS(=O)(=O)c3ccc(Cl)cc3)ccc2F)C(=O)N1 (centres unmarked) [AEV40038]
6.19 | O=C1CCC(c2cccc(NC(=O)c3ccccc3Br)c2)C(=O)N1 (centres unmarked) [AEV40179]
6.17 | O=C1CCC(c2cccc(NS(=O)(=O)c3cccc(Cl)c3Cl)c2)C(=O)N1 (centres unmarked) [AEV40058]
6.51 | O=C1CCC(c2cccc(NS(=O)(=O)c3cccs3)c2)C(=O)N1 (centres unmarked) [AEV40072]
6.10 | O=C1CCC(c2cccc(NS(=O)(=O)c3cccc4ccccc34)c2)C(=O)N1 (centres unmarked) [AEV40048]
6.57 | Nc1ccccc1S(=O)(=O)Nc1cccc(C2CCC(=O)NC2=O)c1 (centres unmarked) [AEV40074]
6.04 | O=C1CCC(c2cccc(NC(=O)c3cc(Cl)ccc3Cl)c2)C(=O)N1 (centres unmarked) [AEV40178]
6.10 | O=C1CCC(c2cccc(NC(=O)c3c(Cl)cc(Cl)cc3Cl)c2)C(=O)N1 (centres unmarked) [AEV40138]
6.01 | O=C1CCC(c2cccc(NS(=O)(=O)c3cccc(NC(=O)c4ccc(Cl)c(Cl)c4)c3)c2)C(=O)N1 (centres unmarked) [AEV40142]
6.00 | Cn1cc(Cl)c(C(=O)Nc2cccc(C3CCC(=O)NC3=O)c2)n1 (centres unmarked) [AEV40188]
6.07 | O=C1CCC(c2cccc(NC(=O)c3c[nH]c4ccccc34)c2)C(=O)N1 (centres unmarked) [AEV40194]
6.52 | O=C1CCC(c2cccc(NS(=O)(=O)c3ccccc3F)c2)C(=O)N1 (centres unmarked) [AEV40045]
6.02 | O=C1CCC(c2cccc(NS(=O)(=O)c3cccc(NC(=O)c4ccccc4Br)c3)c2)C(=O)N1 (centres unmarked) [AEV40155]
5.98 | O=C1CCC(c2cccc(NS(=O)(=O)c3ccccc3C(F)(F)F)c2)C(=O)N1 (centres unmarked) [AEV40070]
6.64 | O=C1CCC(c2cccc(NS(=O)(=O)c3ccc(Cl)cc3F)c2)C(=O)N1 (centres unmarked) [AEV40044]
6.00 | COc1cc(Cl)ccc1CNc1cccc(C2CCC(=O)NC2=O)c1 (centres unmarked) [AEV40096]
6.36 | O=C1CCC(c2cccc(NC(=O)c3ccccc3-c3ccccc3)c2)C(=O)N1 (centres unmarked) [AEV40218]
6.21 | O=C1CCC(c2cccc(NS(=O)(=O)c3cccc(NC(=O)c4ccccc4)c3)c2)C(=O)N1 (centres unmarked) [AEV40143]
6.02 | Cc1c(F)cccc1S(=O)(=O)Nc1cccc(C2CCC(=O)NC2=O)c1 (centres unmarked) [AEV40052]
6.10 | O=C1CCC(c2cccc(NS(=O)(=O)c3cccc(NC(=O)c4cc(F)c(F)cc4F)c3)c2)C(=O)N1 (centres unmarked) [AEV40153]
6.07 | CCCOc1ccc(C(=O)Nc2cccc(S(=O)(=O)Nc3cccc(C4CCC(=O)NC4=O)c3)c2)cc1 (centres unmarked) [AEV40193]
